Data: paper PMC5218480 (PLoS ONE, 2017)

Test system: MV-4-11 cells
Experiment: Gene expression microarray analysis (Affymetrix PrimeView) and GSEA
Format: cell-based, human
Set-up: RFU PODN (11730768_x_at) / Fold change /veh PODN (11730768_x_at) / RFU LINC00158 (11744669_a_at) / Fold change /veh LINC00158 (11744669_a_at) / RFU DUSP10 (11751237_a_at) / Fold change /veh DUSP10 (11751237_a_at) / RFU ID3 (11757404_x_at) / Fold change /veh ID3 (11757404_x_at) / RFU PLEKHG5 (11737974_s_at) / Fold change /veh PLEKHG5 (11737974_s_at) / RFU LRRC4B (11730491_at) / Fold change /veh LRRC4B (11730491_at) / RFU GIMAP4 (11747438_a_at) / Fold change /veh GIMAP4 (11747438_a_at) / RFU KRT8 (11758183_x_at) / Fold change /veh KRT8 (11758183_x_at) / RFU CNN1 (11734310_a_at) / Fold change /veh CNN1 (11734310_a_at) / RFU VPS37D (11726825_at) / Fold change /veh VPS37D (11726825_at) / RFU C10orf10 (11716522_x_at) / Fold change /veh C10orf10 (11716522_x_at) / RFU KIR2DL2 /// KIR2DL4 /// KIR2DL5A /// KIR2DL5B /// KIR2DS1 /// KIR2DS2 /// KIR2DS3 /// KIR2DS4 /// KIR3DL3 /// KIR3DL3 /// KIR3DS1 (11738374_at) / Fold change /veh KIR2DL2 /// KIR2DL4 /// KIR2DL5A /// KIR2DL5B /// KIR2DS1 /// KIR2DS2 /// KIR2DS3 /// KIR2DS4 /// KIR3DL3 /// KIR3DL3 /// KIR3DS1 (11738374_at) / RFU C1QL1 (11718748_at) / Fold change /veh C1QL1 (11718748_at) / RFU TMPRSS4 (11747572_a_at) / Fold change /veh TMPRSS4 (11747572_a_at) / RFU HAMP (11756126_x_at) / Fold change /veh HAMP (11756126_x_at) / RFU RNFT2 (11725882_a_at) / Fold change /veh RNFT2 (11725882_a_at) / RFU NR4A2 (11747474_a_at) / Fold change /veh NR4A2 (11747474_a_at) / RFU ABCC12 (11746883_a_at) / Fold change /veh ABCC12 (11746883_a_at) / RFU TMEM136 (11760407_x_at) / Fold change /veh TMEM136 (11760407_x_at) / RFU CLDN22 /// WWC2 (11732394_at) / Fold change /veh CLDN22 /// WWC2 (11732394_at) / RFU HLA-DPB1 (11760878_x_at) / Fold change /veh HLA-DPB1 (11760878_x_at) / RFU SPINT1 (11716480_a_at) / Fold change /veh SPINT1 (11716480_a_at) / RFU GAP43 (11754022_s_at) / Fold change /veh GAP43 (11754022_s_at) / RFU A4GNT (11735810_at) / Fold change /veh A4GNT (11735810_at) / RFU PRB3 (11715151_x_at) / Fold change /veh PRB3 (11715151_x_at) / RFU TUBB4B (11761932_at) / Fold change /veh TUBB4B (11761932_at) / RFU CAPN14 (11732068_a_at) / Fold change /veh CAPN14 (11732068_a_at) / RFU TMCC2 (11721928_a_at) / Fold change /veh TMCC2 (11721928_a_at) / RFU IRGQ (11745062_a_at) / Fold change /veh IRGQ (11745062_a_at) / RFU FAM174B (11720279_a_at) / Fold change /veh FAM174B (11720279_a_at) / RFU TMPRSS4 (11748680_a_at) / Fold change /veh TMPRSS4 (11748680_a_at) / RFU FAM212B (11763350_a_at) / Fold change /veh FAM212B (11763350_a_at) / RFU PLEKHG5 (11743358_a_at) / Fold change /veh PLEKHG5 (11743358_a_at) / RFU ZSCAN30 (11745921_a_at) / Fold change /veh ZSCAN30 (11745921_a_at) / RFU CMKLR1 (11741424_a_at) / Fold change /veh CMKLR1 (11741424_a_at) / RFU LOC101060620 /// MAPK8IP1 (11723275_at) / Fold change /veh LOC101060620 /// MAPK8IP1 (11723275_at) / RFU SPTSSB (11747773_x_at) / Fold change /veh SPTSSB (11747773_x_at) / RFU PRSS12 (11739890_at) / Fold change /veh PRSS12 (11739890_at) / RFU BIN1 (11741810_x_at) / Fold change /veh BIN1 (11741810_x_at) / RFU WNT11 (11732464_a_at) / Fold change /veh WNT11 (11732464_a_at) / RFU C10orf10 (11716521_a_at) / Fold change /veh C10orf10 (11716521_a_at) / RFU C5orf56 (11738089_at) / Fold change /veh C5orf56 (11738089_at) / RFU CYB561 (11721691_x_at) / Fold change /veh CYB561 (11721691_x_at) / RFU ANKRD19P (11752326_a_at) / Fold change /veh ANKRD19P (11752326_a_at) / RFU OR2T12 /// OR2T33 /// OR2T8 (11738714_s_at) / Fold change /veh OR2T12 /// OR2T33 /// OR2T8 (11738714_s_at) / RFU VCAN (11748164_a_at) / Fold change /veh VCAN (11748164_a_at) / RFU JSRP1 (11732532_at) / Fold change /veh JSRP1 (11732532_at) / RFU KRTAP10-11 (11738290_x_at) / Fold change /veh KRTAP10-11 (11738290_x_at) / RFU MYO3A (11730013_a_at) / Fold change /veh MYO3A (11730013_a_at) / RFU EBF3 (11725865_a_at) / Fold change /veh EBF3 (11725865_a_at) / RFU CAMK2N1 (11719241_x_at) / Fold change /veh CAMK2N1 (11719241_x_at) / RFU C5orf56 (11738088_a_at) / Fold change /veh C5orf56 (11738088_a_at) / RFU OLFML3 (11715873_a_at) / Fold change /veh OLFML3 (11715873_a_at) / RFU LOC100653217 /// NTM (11731650_a_at) / Fold change /veh LOC100653217 /// NTM (11731650_a_at) / RFU MAPK11 (11762145_a_at) / Fold change /veh MAPK11 (11762145_a_at) / RFU FIZ1 (11724087_x_at) / Fold change /veh FIZ1 (11724087_x_at) / RFU OASL (11726364_x_at) / Fold change /veh OASL (11726364_x_at) / RFU SOX15 (11748057_x_at) / Fold change /veh SOX15 (11748057_x_at) / RFU CD79A (11719716_a_at) / Fold change /veh CD79A (11719716_a_at) / RFU HIST1H1D (11736915_at) / Fold change /veh HIST1H1D (11736915_at) / RFU CASKIN2 (11723855_a_at) / Fold change /veh CASKIN2 (11723855_a_at) / RFU LOC730098 (11760151_x_at) / Fold change /veh LOC730098 (11760151_x_at) / RFU OR4N2 (11742367_at) / Fold change /veh OR4N2 (11742367_at) / RFU PRRT2 (11749266_a_at) / Fold change /veh PRRT2 (11749266_a_at) / RFU SNX32 (11753110_a_at) / Fold change /veh SNX32 (11753110_a_at) / RFU CDHR5 (11726645_a_at) / Fold change /veh CDHR5 (11726645_a_at) / RFU RCAN1 (11760418_a_at) / Fold change /veh RCAN1 (11760418_a_at) / RFU FAM167A (11723789_a_at) / Fold change /veh FAM167A (11723789_a_at) / RFU FAM26E (11764081_at) / Fold change /veh FAM26E (11764081_at) / RFU ISYNA1 (11749810_s_at) / Fold change /veh ISYNA1 (11749810_s_at) / RFU ACY1 (11761880_at) / Fold change /veh ACY1 (11761880_at) / RFU 11764098_at / Fold change /veh 11764098_at / RFU SAMD14 (11745864_x_at) / Fold change /veh SAMD14 (11745864_x_at) / RFU NPB (11741838_a_at) / Fold change /veh NPB (11741838_a_at) / RFU TMPRSS6 (11731388_a_at) / Fold change /veh TMPRSS6 (11731388_a_at) / RFU KRTAP10-2 (11738614_at) / Fold change /veh KRTAP10-2 (11738614_at) / RFU ARHGAP8 /// PRR5-ARHGAP8 (11727945_x_at) / Fold change /veh ARHGAP8 /// PRR5-ARHGAP8 (11727945_x_at) / RFU KRTAP5-7 /// NADSYN1 (11734609_at) / Fold change /veh KRTAP5-7 /// NADSYN1 (11734609_at) / RFU RASL12 (11751679_a_at) / Fold change /veh RASL12 (11751679_a_at) / RFU CDKN2B (11736163_a_at) / Fold change /veh CDKN2B (11736163_a_at) / RFU PRF1 (11729649_at) / Fold change /veh PRF1 (11729649_at) / RFU, ZNF638 /// ZNF638-IT1 / Fold change vs veh, ZNF638 /// ZNF638-IT1 / RFU, PANK3 / Fold change vs veh, PANK3 / RFU, SH3YL1 / Fold change vs veh, SH3YL1 / RFU, ZEB2 / Fold change vs veh, ZEB2 / RFU, NRIP1 / Fold change vs veh, NRIP1 / RFU, PTTG1IP / Fold change vs veh, PTTG1IP / RFU, CAPN2 / Fold change vs veh, CAPN2 / RFU, MED14 / Fold change vs veh, MED14 / RFU, SNORA58 / Fold change vs veh, SNORA58 / RFU, C1orf63 / Fold change vs veh, C1orf63 / RFU, LRRFIP1 / Fold change vs veh, LRRFIP1 / RFU, NDUFAF7 / Fold change vs veh, NDUFAF7 / RFU, SLC12A2 / Fold change vs veh, SLC12A2 / RFU, IBTK / Fold change vs veh, IBTK / RFU, ESF1 / Fold change vs veh, ESF1 / Fold change vs veh, TMEM50B / RFU, TAOK1 / Fold change vs veh, TAOK1 / RFU, ACBD3 / Fold change vs veh, ACBD3 / RFU, TMA16 / Fold change vs veh, TMA16 / RFU, RWDD3 / Fold change vs veh, RWDD3 / RFU, BCAT1 / Fold change vs veh, BCAT1 / RFU, EDEM3 / Fold change vs veh, EDEM3 / RFU, TMEM33 / Fold change vs veh, TMEM33 / RFU, WDR75 / Fold change vs veh, WDR75 / RFU, AHCTF1 / Fold change vs veh, AHCTF1 / RFU, TFRC / Fold change vs veh, TFRC / RFU, ZDHHC17 / Fold change vs veh, ZDHHC17 / RFU, NOM1 / Fold change vs veh, NOM1 / RFU, ARL8B / Fold change vs veh, ARL8B / RFU, ZBTB11 / Fold change vs veh, ZBTB11 / RFU, TAMM41 / Fold change vs veh, TAMM41 / RFU, KIAA1704 /// LOC100996395 / Fold change vs veh, KIAA1704 /// LOC100996395 / RFU, ING1 / Fold change vs veh, ING1 / RFU, TRMT61B / Fold change vs veh, TRMT61B / RFU, FUBP3 / Fold change vs veh, FUBP3 / RFU, TP53 / Fold change vs veh, TP53 / RFU, TNKS2 / Fold change vs veh, TNKS2 / RFU, ZFP14 / Fold change vs veh, ZFP14 / RFU, ACTR2 / Fold change vs veh, ACTR2 / RFU, PPP3R1 / Fold change vs veh, PPP3R1 / RFU, PIK3R1 / Fold change vs veh, PIK3R1 / RFU, HNRNPA1 / Fold change vs veh, HNRNPA1 / RFU, RNF170 / Fold change vs veh, RNF170 / RFU, ZNF28 / Fold change vs veh, ZNF28 / RFU, RNGTT / Fold change vs veh, RNGTT / RFU, OGT / Fold change vs veh, OGT / RFU, BRD1 / Fold change vs veh, BRD1 / RFU, MARS / Fold change vs veh, MARS / RFU, ZNF655 / Fold change vs veh, ZNF655 / RFU, FAHD1 / Fold change vs veh, FAHD1 / RFU, BDP1 / Fold change vs veh, BDP1 / RFU, LRRCC1 / Fold change vs veh, LRRCC1 / RFU, ARID1A / Fold change vs veh, ARID1A / RFU, ZNF146 / Fold change vs veh, ZNF146 / RFU, ZNF330 / Fold change vs veh, ZNF330 / RFU, GPN3 / Fold change vs veh, GPN3 / RFU, C9orf123 / Fold change vs veh, C9orf123 / RFU, N4BP2L2 / Fold change vs veh, N4BP2L2 / RFU, ARFIP1 / Fold change vs veh, ARFIP1 / RFU, FAM179B / Fold change vs veh, FAM179B / RFU, BCL10 / Fold change vs veh, BCL10 / RFU, UHRF1BP1L / Fold change vs veh, UHRF1BP1L / RFU, BET1 / Fold change vs veh, BET1 / RFU, CNOT2 / Fold change vs veh, CNOT2 / RFU, ZNF268 / Fold change vs veh, ZNF268 / Fold change vs veh, ZNF507 / RFU, DGCR2 / Fold change vs veh, DGCR2 / RFU, WDSUB1 / Fold change vs veh, WDSUB1 / Fold change vs veh, HSP90B1 /// MIR3652 / RFU, ADSS / Fold change vs veh, ADSS / RFU, GK / Fold change vs veh, GK / RFU, ZNF148 / Fold change vs veh, ZNF148 / RFU, TAF9 / Fold change vs veh, TAF9 / RFU, SLC1A5 / Fold change vs veh, SLC1A5 / RFU, SLMO2 / Fold change vs veh, SLMO2 / RFU, ABCC4 / Fold change vs veh, ABCC4 / RFU, LOC101060439 /// RAP1B / Fold change vs veh, LOC101060439 /// RAP1B / RFU, RFX7 / Fold change vs veh, RFX7 / RFU, GTPBP10 / Fold change vs veh, GTPBP10 / RFU, CNEP1R1 / Fold change vs veh, CNEP1R1 / RFU, BIVM-ERCC5 /// ERCC5 / Fold change vs veh, BIVM-ERCC5 /// ERCC5 / RFU, ILF3 / Fold change vs veh, ILF3 / RFU 11762660_at / Fold change /veh 11762660_at / RFU VCAN (11757783_s_at) / Fold change /veh VCAN (11757783_s_at) / RFU DDX43 (11728927_at) / Fold change /veh DDX43 (11728927_at) / RFU KRT8 (11758188_x_at) / Fold change /veh KRT8 (11758188_x_at) / RFU NKD1 (11759106_at) / Fold change /veh NKD1 (11759106_at) / RFU SRD5A1 (11742802_a_at) / Fold change /veh SRD5A1 (11742802_a_at) / RFU TPSAB1 /// TPSB2 (11721975_s_at) / Fold change /veh TPSAB1 /// TPSB2 (11721975_s_at) / RFU GSTM3 (11746129_a_at) / Fold change /veh GSTM3 (11746129_a_at) / RFU IL23R (11737362_x_at) / Fold change /veh IL23R (11737362_x_at) / RFU TMEM51 (11727254_a_at) / Fold change /veh TMEM51 (11727254_a_at) / RFU PIWIL2 (11732686_x_at) / Fold change /veh PIWIL2 (11732686_x_at) / RFU ORM1 (11744905_x_at) / Fold change /veh ORM1 (11744905_x_at) / RFU CCDC152 (11743942_at) / Fold change /veh CCDC152 (11743942_at) / RFU ECM1 (11717891_a_at) / Fold change /veh ECM1 (11717891_a_at) / RFU IL23R (11748794_a_at) / Fold change /veh IL23R (11748794_a_at) / RFU TNFAIP8L3 (11732012_x_at) / Fold change /veh TNFAIP8L3 (11732012_x_at) / RFU MBOAT4 (11741988_at) / Fold change /veh MBOAT4 (11741988_at) / RFU 11764193_at / Fold change /veh 11764193_at / RFU TMEM53 (11763286_at) / Fold change /veh TMEM53 (11763286_at) / RFU MAGEB2 (11727129_at) / Fold change /veh MAGEB2 (11727129_at) / RFU TMEM200A (11744735_a_at) / Fold change /veh TMEM200A (11744735_a_at) / RFU CCDC152 (11751479_a_at) / Fold change /veh CCDC152 (11751479_a_at) / RFU FAM211A (11726209_a_at) / Fold change /veh FAM211A (11726209_a_at) / RFU RGS16 (11746705_a_at) / Fold change /veh RGS16 (11746705_a_at) / RFU VCAN (11755009_s_at) / Fold change /veh VCAN (11755009_s_at) / RFU RHOB (11743442_s_at) / Fold change /veh RHOB (11743442_s_at) / RFU RGS16 (11720943_a_at) / Fold change /veh RGS16 (11720943_a_at) / RFU RGS16 (11720944_at) / Fold change /veh RGS16 (11720944_at) / RFU, VPS4B / Fold change vs veh, VPS4B / RFU, CREB1 / Fold change vs veh, CREB1 / RFU, DNAJC13 / Fold change vs veh, DNAJC13 / RFU, GNAQ / Fold change vs veh, GNAQ / RFU, CDK5R1 / Fold change vs veh, CDK5R1 / RFU, ZRANB3 / Fold change vs veh, ZRANB3 / RFU, CUL4A / Fold change vs veh, CUL4A / RFU, CCNY / Fold change vs veh, CCNY / RFU, UFL1 / Fold change vs veh, UFL1 / RFU, COG3 / Fold change vs veh, COG3 / RFU, DIAPH2 / Fold change vs veh, DIAPH2 / RFU, SKA2 / Fold change vs veh, SKA2 / RFU, AFF3 / Fold change vs veh, AFF3 / RFU, LMF1 / Fold change vs veh, LMF1 / RFU, IPO11 / Fold change vs veh, IPO11 / RFU, DFFB / Fold change vs veh, DFFB / RFU, FOXP1 / Fold change vs veh, FOXP1 / RFU, CARD8 / Fold change vs veh, CARD8 / RFU, STRN3 / Fold change vs veh, STRN3 / RFU, ADK / Fold change vs veh, ADK / RFU, RASSF2 / Fold change vs veh, RASSF2 / RFU, WIPF1 / Fold change vs veh, WIPF1 / RFU, LARP1B / Fold change vs veh, LARP1B / RFU, RASA1 / Fold change vs veh, RASA1 / RFU, RB1 / Fold change vs veh, RB1 / RFU, PPFIA1 / Fold change vs veh, PPFIA1 / RFU, MAT2A / Fold change vs veh, MAT2A / RFU, CCT5 / Fold change vs veh, CCT5 / RFU, WDR92 / Fold change vs veh, WDR92 / RFU, CUX1 / Fold change vs veh, CUX1 / RFU, TTC7A / Fold change vs veh, TTC7A / RFU, TMEM135 / Fold change vs veh, TMEM135 / RFU, DEPTOR / Fold change vs veh, DEPTOR / RFU, CPM / Fold change vs veh, CPM / RFU, DNAJB6 / Fold change vs veh, DNAJB6 / RFU, CACNA2D3 / Fold change vs veh, CACNA2D3 / RFU, DTX4 / Fold change vs veh, DTX4 / RFU, TFCP2 / Fold change vs veh, TFCP2 / RFU, GMCL1 /// GMCL1P1 / Fold change vs veh, GMCL1 /// GMCL1P1 / RFU, AEBP2 / Fold change vs veh, AEBP2 / RFU, SNHG1 /// SNORD22 /// SNORD25 /// SNORD26 /// SNORD27 /// SNORD28 /// SNORD29 /// SNORD31 / Fold change vs veh, SNHG1 /// SNORD22 /// SNORD25 /// SNORD26 /// SNORD27 /// SNORD28 /// SNORD29 /// SNORD31 / Fold change (Aza/veh), C12orf56 (ProbeSet 11735607_a_at) / Fold change (ACY-1035/veh), C12orf56 (ProbeSet 11735607_a_at) / Fold change (Aza/veh), FGFR1OP (ProbeSet 11751329_s_at) / Fold change (ACY-1035/veh), FGFR1OP (ProbeSet 11751329_s_at) / Fold change (Aza/veh), VPS36 (ProbeSet 11739960_a_at) / Fold change (ACY-1035/veh), VPS36 (ProbeSet 11739960_a_at) / RFU SYPL1 (11715823_x_at) / Fold change /veh SYPL1 (11715823_x_at) / RFU IGFBP7 (11715501_s_at) / Fold change /veh IGFBP7 (11715501_s_at) / RFU REEP3 (11722064_at) / Fold change /veh REEP3 (11722064_at) / RFU IGLL1 (11728026_x_at) / Fold change /veh IGLL1 (11728026_x_at): dose or concentration left out as unconfirmed
Conditions: ProbeSet 11720269_a_at; LIST B

With `Nc1ncn([C@@H]2O[C@H](CO)[C@@H](O)[C@H]2O)c(=O)n1` [azacitidine] the “Fold change vs veh, IBTK” value was 0.94.
